Source: ChEMBL document CHEMBL3621088, “Synthesis of novel acridine bis-sulfonamides with effective inhibitory activity against the carbonic anhydrase isoforms I, II, IX and XII” (Bioorg Med Chem, 2015)

biological target: Carbonic anhydrase 9 (Homo sapiens, UniProt Q16790)
Description: Inhibition of recombinant human carbonic anhydrase 9 catalytic domain expressed in Escherichia coli incubated for 15 mins prior to testing by stopped flow CO2 hydrase assay

Row | SMILES | Ki
1 | CC1(C)CC(=O)C2=C(C1)N(c1ccc(S(N)(=O)=O)cc1)C1=C(C(=O)CC(C)(C)C1)C2c1ccc(N)cc1 | 1000 nM
2 | CC1(C)CC(=O)C2=C(C1)N(c1ccc(S(N)(=O)=O)cc1)C1=C(C(=O)CC(C)(C)C1)C2c1cccc(N)c1 | 920 nM
3 | CC1(C)CC(=O)C2=C(C1)N(c1ccc(S(N)(=O)=O)cc1)C1=C(C(=O)CC(C)(C)C1)C2c1ccc(NS(=O)(=O)c2ccccc2)cc1 | 580 nM
4 | Cc1ccc(S(=O)(=O)Nc2ccc(C3C4=C(CC(C)(C)CC4=O)N(c4ccc(S(N)(=O)=O)cc4)C4=C3C(=O)CC(C)(C)C4)cc2)cc1 | 100 nM
5 | COc1ccc(S(=O)(=O)Nc2ccc(C3C4=C(CC(C)(C)CC4=O)N(c4ccc(S(N)(=O)=O)cc4)C4=C3C(=O)CC(C)(C)C4)cc2)cc1 | 440 nM
6 | CC1(C)CC(=O)C2=C(C1)N(c1ccc(S(N)(=O)=O)cc1)C1=C(C(=O)CC(C)(C)C1)C2c1ccc(NS(=O)(=O)c2ccc(Br)cc2)cc1 | 1120 nM
7 | CC1(C)CC(=O)C2=C(C1)N(c1ccc(S(N)(=O)=O)cc1)C1=C(C(=O)CC(C)(C)C1)C2c1ccc(NS(=O)(=O)c2ccc3ccccc3c2)cc1 | 280 nM
8 | CC1(C)CC(=O)C2=C(C1)N(c1ccc(S(N)(=O)=O)cc1)C1=C(C(=O)CC(C)(C)C1)C2c1cccc(NS(=O)(=O)c2ccccc2)c1 | 110 nM
9 | Cc1ccc(S(=O)(=O)Nc2cccc(C3C4=C(CC(C)(C)CC4=O)N(c4ccc(S(N)(=O)=O)cc4)C4=C3C(=O)CC(C)(C)C4)c2)cc1 | 100 nM
10 | COc1ccc(S(=O)(=O)Nc2cccc(C3C4=C(CC(C)(C)CC4=O)N(c4ccc(S(N)(=O)=O)cc4)C4=C3C(=O)CC(C)(C)C4)c2)cc1 | 800 nM
11 | CC1(C)CC(=O)C2=C(C1)N(c1ccc(S(N)(=O)=O)cc1)C1=C(C(=O)CC(C)(C)C1)C2c1cccc(NS(=O)(=O)c2ccc(Br)cc2)c1 | 250 nM
12 | CC1(C)CC(=O)C2=C(C1)N(c1ccc(S(N)(=O)=O)cc1)C1=C(C(=O)CC(C)(C)C1)C2c1cccc(NS(=O)(=O)c2ccc3ccccc3c2)c1 | 810 nM
